Measurements published in patent US20260315464A1, “COMPOSITIONS, METHODS, AND SYSTEMS FOR MODULATING SPLICING OF MSH3” (REVIR THERAPEUTICS, INC., priority 2023, published 2026).

Test system: MSH3
Test: QPCR assay for levels of MSH3 upon compound treatment in HEK293T or AD293 cells (fold-change of MSH3 transcript, EC50 of MSH3 downregulation; total MSH3 exons 13/14, exons 20/21; Table 8)
Format: cell-based
Settings: Homo sapiens, fold-change of the MSH3 transcript, normalized to GAPDH; for mrna remaining at 1 µM: 1 μM compound; for mrna remaining at 10 µM: 10 μM compound
Summary of the method: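 MSH3 mRNA was quantified by TaqMan qPCR covering exons 13/14, exons 20/21, exon 13/PE14A and exon 20/PE21A, with GAPDH as reference. Cells used were HEK293T or AD293, treated with compound at 1 μM and […].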

Structure (SMILES)	mrna remaining at 1 µM [%]	mrna remaining at 10 µM [%]
Cc1nn(C)nc1-c1cc(F)c2c(c1)C(=O)N(c1ccc(N3CCC(C)(C)NC(C)(C)C3)nn1)C2 [Compound 657, 6-(2,5-dimethyl-2H-1,2,3-triazol-4-yl)-4-fluoro-2-(6-(3,3,5,5-tetramethyl-1,4-diazepan-1-yl)pyridazin-3-yl)isoindolin-1-one]	75	26
Cc1nn(C)nc1-c1cc(F)c2c(c1)C(=O)N(c1ccc(N3CC4CCC(C3)N4)nn1)C2 [Compound 658, 2-(6-(3,8-diazabicyclo[3.2.1]octan-3-yl)pyridazin-3-yl)-6-(2,5-dimethyl-2H-1,2,3-triazol-4-yl)-4-fluoroisoindolin-1-one]	132	51
Cn1nc(Cl)c(-c2cc(F)c3c(c2)C(=O)N(c2ccc(N4CCC5CCC(C4)N5)nn2)C3)n1 (centres unmarked) [Compound 659, 2-(6-(3,9-diazabicyclo[4.2.1]nonan-3-yl)pyridazin-3-yl)-6-(5-chloro-2-methyl-2H-1,2,3-triazol-4-yl)-4-fluoroisoindolin-1-one]	142	57
Cc1nn(C)nc1-c1cc(Cl)c2c(c1)C(=O)N(c1ccc(N(C)[C@H]3C[C@]4(C)CC[C@](C)(C3)N4)nn1)C2 [Compound 660, 4-chloro-6-(2,5-dimethyl-2H-1,2,3-triazol-4-yl)-2-(6-(((1R,3s,5S)-1,5-dimethyl-8-azabicyclo[3.2.1]octan-3-yl)(methyl)amino)pyridazin-3-yl)isoindolin-1-one]	101	50
Cc1nn(C)nc1-c1cc(Cl)c2c(c1)C(=O)N(c1ccc(O[C@H]3C[C@]4(C)CC[C@](C)(C3)N4)nn1)C2 [Compound 661, 4-chloro-6-(2,5-dimethyl-2H-1,2,3-triazol-4-yl)-2-(6-(((1R,3s,5S)-1,5-dimethyl-8-azabicyclo[3.2.1]octan-3-yl)oxy)pyridazin-3-yl)isoindolin-1-one]	155	33
Cc1nn(C)nc1-c1cc(F)c2c(c1)C(=O)N(c1ccc(N3CC4CC(C3)N4)nn1)C2 [Compound 662, 2-(6-(3,6-diazabicyclo[3.1.1]heptan-3-yl)pyridazin-3-yl)-6-(2,5-dimethyl-2H-1,2,3-triazol-4-yl)-4-fluoroisoindolin-1-one]	191	87
CCN1CC2CN(c3ccc(N4Cc5c(F)cc(-c6nn(C)nc6C)cc5C4=O)nn3)CC2C1 (centres unmarked) [Compound 663, 6-(2,5-dimethyl-2H-1,2,3-triazol-4-yl)-2-(6-(5-ethylhexahydropyrrolo[3,4-c]pyrrol-2(1H)-yl)pyridazin-3-yl)-4-fluoroisoindolin-1-one]	232	62
Cc1nn(C)nc1-c1cc(Cl)c2c(c1)C(=O)N(c1ccc(OC3CC(C)(C)NC(C)(C)C3)nn1)C2 [Compound 664, 4-chloro-6-(2,5-dimethyl-2H-1,2,3-triazol-4-yl)-2-(6-((2,2,6,6-tetramethylpiperidin-4-yl)oxy)pyridazin-3-yl)isoindolin-1-one]	94	20
Cc1nn(C)nc1-c1cc(F)c2c(c1)C(=O)N(c1ccc(N3CCN4CCC[C@H]4C3)nn1)C2 [Compound 665, (S)-6-(2,5-dimethyl-2H-1,2,3-triazol-4-yl)-4-fluoro-2-(6-(hexahydropyrrolo[1,2-a]pyrazin-2(1H)-yl)pyridazin-3-yl)isoindolin-1-one]	92	32
Cc1nn(C)nc1-c1cc(F)c2c(c1)C(=O)N(c1ccc(N3CC4(CNC4)C3)nn1)C2 [Compound 666, 2-(6-(2,6-diazaspiro[3.3]heptan-2-yl)pyridazin-3-yl)-6-(2,5-dimethyl-2H-1,2,3-triazol-4-yl)-4-fluoroisoindolin-1-one]	97	59
CN(C)C1CCN(c2ccc(N3Cc4c(F)cc(-c5nn(C)nc5Cl)cc4C3=O)nn2)CC1 [Compound 667, 6-(5-chloro-2-methyl-2H-1,2,3-triazol-4-yl)-2-(6-(4-(dimethylamino)piperidin-1-yl)pyridazin-3-yl)-4-fluoroisoindolin-1-one]	92	71
CC1CCN(c2ccc(N3Cc4c(F)cc(-c5nn(C)nc5Cl)cc4C3=O)nn2)CCN1 (centres unmarked) [Compound 668, 6-(5-chloro-2-methyl-2H-1,2,3-triazol-4-yl)-4-fluoro-2-(6-(5-methyl-1,4-diazepan-1-yl)pyridazin-3-yl)isoindolin-1-one]	103	13
Cc1nn(C)nc1-c1cc(F)c2c(c1)C(=O)N(c1ccc(N3CCCNCC3)nn1)C2 [Compound 669, 2-(6-(1,4-diazepan-1-yl)pyridazin-3-yl)-6-(2,5-dimethyl-2H-1,2,3-triazol-4-yl)-4-fluoroisoindolin-1-one]	97	42
Cn1nc(Cl)c(-c2cc(F)c3c(c2)C(=O)N(c2ccc(N4CC5(CNC5)C4)nn2)C3)n1 [Compound 670, 2-(6-(2,6-diazaspiro[3.3]heptan-2-yl)pyridazin-3-yl)-6-(5-chloro-2-methyl-2H-1,2,3-triazol-4-yl)-4-fluoroisoindolin-1-one]	92	44
Cn1nc(Cl)c(-c2cc(F)c3c(c2)C(=O)N(c2ccc(N4CCN5CCC[C@H]5C4)nn2)C3)n1 [Compound 671, (S)-6-(5-chloro-2-methyl-2H-1,2,3-triazol-4-yl)-4-fluoro-2-(6-(hexahydropyrrolo[1,2-a]pyrazin-2(1H)-yl)pyridazin-3-yl)isoindolin-1-one]	94	47
Cc1nn(C)nc1-c1cc(F)c2c(c1)C(=O)N(c1ccc(N3CCC(N(C)C)CC3)nn1)C2 [Compound 672, 6-(2,5-dimethyl-2H-1,2,3-triazol-4-yl)-2-(6-(4-(dimethylamino)piperidin-1-yl)pyridazin-3-yl)-4-fluoroisoindolin-1-one]	95	74
CN(c1ccc(N2Cc3c(F)cc(-n4nccn4)cc3C2=O)nn1)[C@H]1C[C@]2(C)CC[C@](C)(C1)N2 [Compound 673, 2-(6-(((1R,3s,5S)-1,5-dimethyl-8-azabicyclo[3.2.1]octan-3-yl)(methyl)amino)pyridazin-3-yl)-4-fluoro-6-(2H-1,2,3-triazol-2-yl)isoindolin-1-one]	91	33
Cc1nn(C)nc1-c1cc(F)c2c(c1)C(=O)N(c1ccc(N3C[C@@H](C)NC[C@@H]3C)nn1)C2 [Compound 674, 6-(2,5-dimethyl-2H-1,2,3-triazol-4-yl)-2-(6-((2S,5R)-2,5-dimethylpiperazin-1-yl)pyridazin-3-yl)-4-fluoroisoindolin-1-one]	98	49
Cc1nn(C)nc1-c1cc(C#N)c2c(c1)C(=O)N(c1ccc(N(C)[C@H]3C[C@]4(C)CC[C@](C)(C3)N4)nn1)C2 [Compound 676, 6-(2,5-dimethyl-2H-1,2,3-triazol-4-yl)-2-(6-(((1R,3s,5S)-1,5-dimethyl-8-azabicyclo[3.2.1]octan-3-yl)(methyl)amino)pyridazin-3-yl)-1-oxoisoindoline-4-carbonitrile]	48	17
CN(c1ccc(N2Cc3c(Cl)cc(-c4nn(C)nc4Cl)cc3C2=O)nn1)[C@H]1C[C@]2(C)CC[C@](C)(C1)N2 [Compound 679, 4-chloro-6-(5-chloro-2-methyl-2H-1,2,3-triazol-4-yl)-2-(6-(((1R,3s,5S)-1,5-dimethyl-8-azabicyclo[3.2.1]octan-3-yl)(methyl)amino)pyridazin-3-yl)isoindolin-1-one]	95	34
Cn1nc(Cl)c(-c2cc(C#N)c3c(c2)C(=O)N(c2ccc(OC4CC(C)(C)NC(C)(C)C4)nn2)C3)n1 [Compound 680, 6-(5-chloro-2-methyl-2H-1,2,3-triazol-4-yl)-1-oxo-2-(6-((2,2,6,6-tetramethylpiperidin-4-yl)oxy)pyridazin-3-yl)isoindoline-4-carbonitrile]	94	31
Cc1nn(C)nc1-c1cc(C#N)c2c(c1)C(=O)N(c1ccc(O[C@H]3C[C@]4(C)CC[C@](C)(C3)N4)nn1)C2 [Compound 681, 6-(2,5-dimethyl-2H-1,2,3-triazol-4-yl)-2-(6-(((1R,3s,5S)-1,5-dimethyl-8-azabicyclo[3.2.1]octan-3-yl)oxy)pyridazin-3-yl)-1-oxoisoindoline-4-carbonitrile]	76	8
CN(c1ccc(N2Cc3c(C#N)cc(-c4nn(C)nc4Cl)cc3C2=O)nn1)C1CC(C)(C)NC(C)(C)C1 [Compound 682, 6-(5-chloro-2-methyl-2H-1,2,3-triazol-4-yl)-2-(6-(methyl(2,2,6,6-tetramethylpiperidin-4-yl)amino)pyridazin-3-yl)-1-oxoisoindoline-4-carbonitrile]	77	17
COc1cc(-c2nn(C)nc2C)cc2c1CN(c1ccc(N(C)C3CC(C)(C)NC(C)(C)C3)nn1)C2=O [Compound 683, 6-(2,5-dimethyl-2H-1,2,3-triazol-4-yl)-4-methoxy-2-(6-(methyl(2,2,6,6-tetramethylpiperidin-4-yl)amino)pyridazin-3-yl)isoindolin-1-one]	138	26
COc1cc(-c2nn(C)nc2Cl)cc2c1CN(c1ccc(O[C@H]3C[C@]4(C)CC[C@](C)(C3)N4)nn1)C2=O [Compound 684, 6-(5-chloro-2-methyl-2H-1,2,3-triazol-4-yl)-2-(6-(((1R,3s,5S)-1,5-dimethyl-8-azabicyclo[3.2.1]octan-3-yl)oxy)pyridazin-3-yl)-4-methoxyisoindolin-1-one]	133	24
